Experiments:
[1] = system: IL-1β secretion in BMDM cells (NLRP3 inflammasome); test: ELISA of IL-1β secretion in LPS/nigericin-treated BMDM cells; assay type: cell-based; settings: Mus musculus
Protocol: When L929 cells reach the logarithmic phase, collect the cell supernatant. Filter the supernatant using a 0.22 μm filter and store it at −20 °C for future use. The 7-week-old C57BL/6 mice were selected as the source of primary bone marrow macrophages. The mice were euthanized using the cervical dislocation method. The ends of the femurs were cut, and the bone marrow was flushed into a 15 mL centrifuge tube using a 5 mL syringe. Once all the bone marrow was collected, an appropriate amount of red blood cell lysis buffer was added to the centrifuge tube. The mixture was incubated for 3–5 min, with repeated pipetting to thoroughly lyse the red blood cells. The cells were then centrifuged and collected. Add 30–40% L929 cell supernatant or M-CSF stimulatory factor to the culture dish. Culture the cells in a cell incubator at 37 °C with 5% CO2. Observe the cell condition daily, and once most cells have adhered to the surface, proceed with subsequent experiments.
Inoculate 1.0 × 10^5 BMDMs cells per well into a 96 well plate and culture overnight. Stimulate the cells with lipopolysaccharide (LPS) at a concentration of 0.2 μg/mL for 3 h, then add different concentrations of the test compounds and incubate for 30 min. Finally, add Nigericin at a concentration of 10 μM to continue the induction for 30 min. Collect the cell supernatant and measure the IL-1β secretion level in the supernatant using an ELISA kit, following the instructions provided, and calculate the IC50 value based on the relevant calculations. To ensure the accuracy and reliability of the experimental results, all experiments were repeated three times, with each experiment performed independently.

[2] = system: THP-1 cells; test: LDH release assay; assay type: cell-based; settings: NLRP3 inflammasome activation by LPS/Nigericin
From the text: Pyroptosis is a form of programmed cell death, typically triggered by the activation of inflammasomes within the cell. It is characterized by the rupture of the cell membrane, releasing cellular contents (such as Lactate Dehydrogenase, LDH), which enhances the inflammatory response. Unlike apoptosis, pyroptosis is initiated through the activation of inflammasomes, involving distinct molecular mechanisms, and is often accompanied by cell swelling and rupture. In contrast, apoptosis is triggered by the activation of Caspase-3, leading to systemic degradation within the cell while maintaining the integrity of the cell membrane. The cell undergoes controlled self-degradation without provoking an immune response. Inhibiting pyroptosis is crucial for alleviating inflammation and promoting tissue repair. To investigate the effect of compound F14 on pyroptosis, we employed flow cytometry and lactate dehydrogenase (LDH) release assays for systematic analysis. Flow cytometry was used to assess the impact of F14 on pyroptosis under inflammatory conditions.
Count the THP-1 cells and inoculate them into a 96-well plate. Add 50 ng/mL PMA and culture the cells at 37 °C in a 5% CO2 incubator for 24 h. Add LPS-containing medium and stimulate the cells for 3 h to induce an inflammatory response. Add F14 and incubate for 1 h, then add Nigericin and stimulate for 30 min to induce pyroptosis. […]

[3] = system: NLRP3 inflammasome; test: NLRP3 inflammasome activation by ATP, MSU and Nigericin in BMDMs (ELISA of IL-1β); assay type: cell-based, mouse; settings: F14 10 μM; LPS-primed BMDMs stimulated with ATP, MSU or Nigericin
From the text: (§1) The NLRP3 inflammasome can be activated by various stimuli, such as microbial toxins and urate crystals. This process plays a central role in the pathogenesis of many inflammatory diseases. To assess whether F14 exerts a broad-spectrum inhibitory effect on NLRP3 inflammasome activation, we used three different activators—ATP, MSU, and Nigericin to stimulate BMDMs. […] Among the inflammasome family, NLRC4 and AIM2 are also protein complexes involved in the innate immune response, playing key roles in inflammatory regulation during infection and tissue damage. Poly (dA:dT) was used to induce AIM2 activation, while S.typhi was employed to stimulate NLRC4 activation. […].
(§2) The LPS concentration was 200 ng/mL to pretreat BMDM cells for 3 h, then F14 (10 μM) was added to treat the cells for 30 min, and then each inducer—Nigericin (10 μM, 0.5 h), ATP (2.5 mM, 0.5 h), MSU (150 μg/mL, 4 h), S.typhi (4 h), and poly-(dA:dT) (0.5 μg/mL, 4 h)—were added for stimulation. (A) F14 has a broad-spectrum inhibitory effect on NLRP3 inflammasome activation. (B) F14 has a specific inhibitory effect on NLRP3 inflammasome activation. Data are presented as the mean ± SEM (n = 3). *** p < 0.001 vs. the model group. NS, not significant.

[4] = system: AIM2 inflammasome; test: AIM2 inflammasome activation induced by poly (dA:dT) in BMDMs; assay type: cell-based, mouse; settings: F14 10 μM, LPS-primed BMDMs
From the text: as §1, §2

[5] = system: NLRC4 inflammasome; test: NLRC4 inflammasome activation induced by S.typhi in BMDMs; assay type: cell-based, mouse; settings: F14 10 μM, LPS-primed BMDMs
From the text: The NLRP3 inflammasome can be activated by various stimuli, such as microbial toxins and urate crystals. This process plays a central role in the pathogenesis of many inflammatory diseases. To assess whether F14 exerts a broad-spectrum inhibitory effect on NLRP3 inflammasome activation, we used three different activators—ATP, MSU, and Nigericin to stimulate BMDMs. […] Among the inflammasome family, NLRC4 and AIM2 are also protein complexes involved in the innate immune response, playing key roles in inflammatory regulation during infection and tissue damage. Poly (dA:dT) was used to induce AIM2 activation, while S.typhi was employed to stimulate NLRC4 activation.
as §2

[6] = system: NLRP3 inflammasome; test: Western blot of NLRP3 inflammasome proteins in BMDMs; assay type: cell-based, mouse; settings: BMDM, LPS and Nigericin
Protocol: To further investigate the potential molecular mechanisms of compound F14, an in vitro inflammation model was constructed using BMDM cells.
Inoculate BMDMs cells into a 6-well plate with 4-6 × 10^6 cells per well and culture overnight. Pre-treat with LPS (200 ng/mL) for 3 h, then treat with different concentrations of compound F14 for 30 min, and add Nigericin (10 µM) to activate BMDMs for 30 min. Add RIPA (Beyotime Biotechnology, Shanghai, China) for lysis. Select SDS-PAGE with different concentrations for electrophoresis, and then transfer to PVDF membrane (Millipore Immobilon-P, Burlington, MA, USA). Incubate the antibody imprint overnight at 4°C, and then incubate with HRP conjugated secondary antibody for 1 h.

Question: `Cc1ccc(C(=O)/C=C/c2cccc(O)c2)c(C)c1` [Compound F14, (E)-1-(2,4-dimethylphenyl)-3-(3-hydroxyphenyl)propyl-2-en-1-one] was tested. Which inhibition at 20 µM ([1]; 20 µM, LPS/nigericin-treated BMDM cells, mean ± S.E.M. (n = 3), read-out: IL-1β Inhibition Rate (%)) did it give?
Answer: The inhibition at 20 µM was 95.4 ± 2.56%.

Question: And the IC50 ([1]; BMDM, LPS/nigericin, three independent experiments, read-out: IL-1β release IC50 in BMDMs)?
Answer: Its IC50 is 740 nM.

Question: And the LDH release [2]?
Answer: The LDH release was “decreased in a concentration-dependent manner”.

Question: What about the “protein expression levels of mature IL-1β (ELISA)” value [3] of the same molecule?
Answer: The value was “significantly reduced”.

Question: What about the “activation of AIM2 inflammasome” value [4] of the same molecule?
Answer: The value was “no effect”.

Question: And the “activation of NLRC4 inflammasome” value [5]?
Answer: The value was “no effect”.

Question: What about the “protein expression levels of pro-IL-1β, pro-caspase-1, ASC, NEK7 and NLRP3” value [6] of the same molecule?
Answer: Its value is “no significant effect”.

Question: And the “protein levels of IL-1β and caspase-1 in the cell supernatant” value [6]?
Answer: Its value is “concentration-dependent inhibitory effect”.
